According to ChEMBL document CHEMBL2021790, “Pyridone methylsulfone hydroxamate LpxC inhibitors for the treatment of serious gram-negative infections” (J Med Chem, 2012):
In brackets after ≈: the same amount, converted by molar mass.

Legend:
[1] = tested on: Klebsiella aerogenes; assay: microbe, parasite or virus in culture
Description: Antimicrobial activity against Enterobacter aerogenes after 16 to 20 hrs by 2-fold microbroth dilution method

[2] = tested on: Citrobacter freundii; assay: microbe, parasite or virus in culture
Description: Antimicrobial activity against Citrobacter freundii after 16 to 20 hrs by 2-fold microbroth dilution method

[3] = tested on: Acinetobacter sp.; assay: Antimicrobial activity against Acinetobacter sp. after 16 to 20 hrs by 2-fold microbroth dilution method; format: functional
[4] = tested on: Klebsiella pneumoniae; assay: microbe, parasite or virus in culture
Description: Antimicrobial activity against Klebsiella pneumoniae after 16 to 20 hrs by 2-fold microbroth dilution method

[5] = tested on: Escherichia coli; assay: microbe, parasite or virus in culture
Description: Antimicrobial activity against Escherichia coli after 16 to 20 hrs by 2-fold microbroth dilution method

[6] = tested on: Pseudomonas aeruginosa; assay: microbe, parasite or virus in culture
Description: Antimicrobial activity against Pseudomonas aeruginosa after 16 to 20 hrs by 2-fold microbroth dilution method

[7] = tested on: Pseudomonas aeruginosa; assay: Antimicrobial activity against Pseudomonas aeruginosa PA3919 with (delta(mexAB-OprM)delta(mexXY)delta(MexZ) phenotype after 16 to 20 hrs by 2-fold microbroth dilution method; format: functional
[8] = target: T1, UDP-3-O-acyl-N-acetylglucosamine deacetylase (Pseudomonas aeruginosa (strain ATCC 15692 / PAO1 / 1C / PRS 101 / LMG12228), UniProt P47205); assay: Inhibition of Pseudomonas aeruginosa LpxC expressed in Escherichia coli using UDP-3-O-N-acetylglucosamine substrate measured after 30 mins by mass spectrometry
T1 sequence (P47205 whole entry): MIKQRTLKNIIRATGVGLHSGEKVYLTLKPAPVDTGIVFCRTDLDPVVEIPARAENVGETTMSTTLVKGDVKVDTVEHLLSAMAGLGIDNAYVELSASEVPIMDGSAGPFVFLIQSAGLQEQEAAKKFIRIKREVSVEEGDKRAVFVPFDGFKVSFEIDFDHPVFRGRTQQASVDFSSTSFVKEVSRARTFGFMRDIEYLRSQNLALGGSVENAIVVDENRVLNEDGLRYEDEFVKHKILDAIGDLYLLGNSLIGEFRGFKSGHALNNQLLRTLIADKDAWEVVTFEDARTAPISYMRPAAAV

[9] = tested on: Pseudomonas aeruginosa; assay: Antimicrobial activity against wild type Pseudomonas aeruginosa PA01 after 16 to 20 hrs by 2-fold microbroth dilution method; format: functional

Compound C[C@H]1[C@H](NC(=O)/C(=N\OC(C)(C)C(=O)O)c2csc(N)n2)C(=O)N1S(=O)(=O)O [AZTREONAM] has an MIC90 [1] of 32 µg/mL (≈ 73.5 µM), an MIC90 [2] of over 64 µg/mL and an MIC90 [3] of 32 µg/mL (≈ 73.5 µM). The MIC90 [4] was over 64 µg/mL, the MIC90 [5] was over 64 µg/mL and the MIC90 [6] was 64 µg/mL (≈ 147 µM).
For C[C@@](CCn1cnc(-c2ccccc2)cc1=O)(C(=O)NO)S(C)(=O)=O, the MIC90 [1] was 16 µg/mL (≈ 43.8 µM), the MIC [7] was 0.03 µg/mL (≈ 0.0821 µM) and the MIC90 [2] was 16 µg/mL (≈ 43.8 µM). For the same compound, the MIC90 [3] was 64 µg/mL (≈ 175 µM), the MIC90 [4] was 16 µg/mL (≈ 43.8 µM) and the MIC90 [5] was 8 µg/mL (≈ 21.9 µM). For the same compound, the IC50 [8] was 8.5 nM, the MIC90 [6] was 4 µg/mL (≈ 10.9 µM) and the MIC [9] was 1 µg/mL (≈ 2.74 µM).
C[C@@](CCn1ccc(-c2ccccc2)c(F)c1=O)(C(=O)NO)S(C)(=O)=O showed an MIC [7] of 0.015 µg/mL (≈ 0.0392 µM), an IC50 [8] of 4.9 nM and an MIC [9] of 1 µg/mL (≈ 2.61 µM).
Work on Cc1cc(C)cc(-c2ccn(CC[C@](C)(C(=O)NO)S(C)(=O)=O)c(=O)c2)c1 yielded an MIC [7] of 0.125 µg/mL (≈ 0.318 µM), an IC50 [8] of 5.3 nM and an MIC [9] of 2 µg/mL (≈ 5.1 µM).
C[C@@](CCn1ccc(-c2cccc(F)c2)cc1=O)(C(=O)NO)S(C)(=O)=O was tested, and the MIC [7] was 0.015 µg/mL (≈ 0.0392 µM), the IC50 [8] was 3 nM and the MIC [9] was 0.5 µg/mL (≈ 1.31 µM).
COc1ncc(-c2ccc(-c3ccn(CC[C@](C)(C(=O)NO)S(C)(=O)=O)c(=O)c3)cc2)cn1 showed an MIC [7] of 0.03 µg/mL (≈ 0.0635 µM), an IC50 [8] of 2 nM and an MIC [9] of 0.5 µg/mL (≈ 1.06 µM).
COc1cccc(-c2ccn(CC[C@](C)(C(=O)NO)S(C)(=O)=O)c(=O)c2)c1F was tested, and the MIC [7] was 0.015 µg/mL (≈ 0.0364 µM), the IC50 [8] was 1.8 nM and the MIC [9] was 0.5 µg/mL (≈ 1.21 µM).
In the case of C[C@@](CCn1ccc(-c2ccc(-c3ccncc3)cc2)cc1=O)(C(=O)NO)S(C)(=O)=O, the MIC [7] is reported as 0.03 µg/mL (≈ 0.0679 µM), the IC50 [8] is reported as 1.2 nM and the MIC [9] is reported as 0.5 µg/mL (≈ 1.13 µM).
In the case of Cc1cn(CC[C@](C)(C(=O)NO)S(C)(=O)=O)c(=O)cc1-c1ccccc1, the MIC [7] is reported as 0.125 µg/mL (≈ 0.33 µM), the IC50 [8] is reported as 30 nM and the MIC [9] is reported as 8 µg/mL (≈ 21.1 µM).
Work on C[C@@](CCn1ccc(-c2c(F)cccc2F)cc1=O)(C(=O)NO)S(C)(=O)=O yielded an MIC [7] of 0.03 µg/mL (≈ 0.0749 µM), an IC50 [8] of 4.8 nM and an MIC [9] of 0.5 µg/mL (≈ 1.25 µM).
Compound C[C@@](CCn1ccc(C#Cc2ccccc2)cc1=O)(C(=O)NO)S(C)(=O)=O has an MIC90 [1] of 0.25 µg/mL (≈ 0.644 µM), an MIC [7] of 0.015 µg/mL (≈ 0.0386 µM) and an MIC90 [2] of 0.125 µg/mL (≈ 0.322 µM). For the same compound, the MIC90 [3] was over 64 µg/mL, the MIC90 [4] was 0.5 µg/mL (≈ 1.29 µM) and the MIC90 [5] was 0.06 µg/mL (≈ 0.154 µM). It also gave an IC50 [8] of 1.8 nM, an MIC90 [6] of 2 µg/mL (≈ 5.15 µM) and an MIC [9] of 0.25 µg/mL (≈ 0.644 µM).
In the case of C[C@@](CCn1ccc(-c2ccc3ccccc3c2)cc1=O)(C(=O)NO)S(C)(=O)=O, the MIC90 [1] is reported as 0.25 µg/mL (≈ 0.603 µM), the MIC [7] is reported as 0.008 µg/mL (≈ 0.0193 µM) and the MIC90 [2] is reported as 0.125 µg/mL (≈ 0.302 µM). It also gave an MIC90 [3] of over 64 µg/mL, an MIC90 [4] of 0.5 µg/mL (≈ 1.21 µM) and an MIC90 [5] of 0.06 µg/mL (≈ 0.145 µM). The IC50 [8] was 1.2 nM, the MIC90 [6] was 1 µg/mL (≈ 2.41 µM) and the MIC [9] was 0.125 µg/mL (≈ 0.302 µM).
CC(C)(C)c1ccn(CC[C@](C)(C(=O)NO)S(C)(=O)=O)c(=O)c1 showed an MIC [7] of 0.25 µg/mL (≈ 0.726 µM), an IC50 [8] of 69 nM and an MIC [9] of 8 µg/mL (≈ 23.2 µM).
With C[C@@](CCn1ccc(-c2cccnc2)cc1=O)(C(=O)NO)S(C)(=O)=O the MIC [7] was 2 µg/mL (≈ 5.47 µM), the IC50 [8] was over 100 nM and the MIC [9] was over 64 µg/mL.
In the case of CC(CCc1ccc(-c2ccccc2)cn1)(C(=O)NO)S(C)(=O)=O (racemic), the MIC [7] is reported as 0.125 µg/mL (≈ 0.359 µM), the IC50 [8] is reported as 13 nM and the MIC [9] is reported as 4 µg/mL (≈ 11.5 µM).
Compound C[C@@](CCn1ccc(-c2ccccn2)cc1=O)(C(=O)NO)S(C)(=O)=O has an MIC [7] of 0.25 µg/mL (≈ 0.684 µM), an IC50 [8] of 60 nM and an MIC [9] of 4 µg/mL (≈ 10.9 µM).
C[C@@](CCn1ccc(-c2ccc(-c3ccccn3)cc2)cc1=O)(C(=O)NO)S(C)(=O)=O showed an MIC [7] of 0.015 µg/mL (≈ 0.034 µM), an IC50 [8] of 1.3 nM and an MIC [9] of 0.5 µg/mL (≈ 1.13 µM).
O=C(O)c1cn(C2CC2)c2cc(N3CCNCC3)c(F)cc2c1=O [CIPROFLOXACIN] showed an MIC90 [1] of 1 µg/mL (≈ 3.02 µM), an MIC90 [2] of 32 µg/mL (≈ 96.6 µM) and an MIC90 [3] of 64 µg/mL (≈ 193 µM). It also gave an MIC90 [4] of 64 µg/mL (≈ 193 µM), an MIC90 [5] of over 64 µg/mL and an MIC90 [6] of 64 µg/mL (≈ 193 µM).
Work on C[C@@](CCn1ccc(-c2cc(F)cc(F)c2)cc1=O)(C(=O)NO)S(C)(=O)=O yielded an MIC [7] of 0.03 µg/mL (≈ 0.0749 µM), an IC50 [8] of 3.9 nM and an MIC [9] of 1 µg/mL (≈ 2.5 µM).
COc1ccc(-c2ccn(CC[C@](C)(C(=O)NO)S(C)(=O)=O)c(=O)c2)cc1 gave an MIC [7] of 0.008 µg/mL (≈ 0.0203 µM) and an MIC [9] of 0.125 µg/mL (≈ 0.317 µM).
For Cc1c(-c2ccccc2)ccn(CC[C@](C)(C(=O)NO)S(C)(=O)=O)c1=O, the MIC [7] was 0.015 µg/mL (≈ 0.0396 µM), the IC50 [8] was 6.7 nM and the MIC [9] was 0.5 µg/mL (≈ 1.32 µM).
C[C@@](CCn1ccc(-c2ccc(-c3nccs3)cc2)cc1=O)(C(=O)NO)S(C)(=O)=O gave an MIC [7] of 0.015 µg/mL (≈ 0.0335 µM), an IC50 [8] of 1.1 nM and an MIC [9] of 0.25 µg/mL (≈ 0.559 µM).
C[C@@](CCn1ccc(-c2ccc(Cl)cc2F)cc1=O)(C(=O)NO)S(C)(=O)=O showed an MIC90 [1] of 0.5 µg/mL (≈ 1.2 µM), an MIC [7] of 0.008 µg/mL (≈ 0.0192 µM) and an MIC90 [2] of 0.5 µg/mL (≈ 1.2 µM). For the same compound, the MIC90 [3] was 64 µg/mL (≈ 154 µM), the MIC90 [4] was 1 µg/mL (≈ 2.4 µM) and the MIC90 [5] was 0.125 µg/mL (≈ 0.3 µM). It also gave an IC50 [8] of 1 nM, an MIC90 [6] of 1 µg/mL (≈ 2.4 µM) and an MIC [9] of 0.125 µg/mL (≈ 0.3 µM).
CC(CCc1ccc(-c2ccccc2)nc1)(C(=O)NO)S(C)(=O)=O (racemic) was tested, and the MIC [7] was 0.25 µg/mL (≈ 0.718 µM), the IC50 [8] was 49 nM and the MIC [9] was 8 µg/mL (≈ 23 µM).
